According to patent US6565872B2, “Polymeric system for drug delivery and solute separation” (priority 1999, dated 2003):

Test: Permeation of solutes through the composite membrane, side-by-side diffusion cell
Type: physicochemical
Details: for P(45° C.)/P(20° C.) in 0.0001M KCl: permeability ratio across composite membrane, 45° C. vs 20° C.
Experimental: Permeation of solutes of various molecular sizes through the membrane was determined using a side-by-side diffusion cell. The solution in the receptor cell was pumped to a UV cell with a peristaltic pump. The amount of solute permeated was assayed by a diode array spectrophotometer (HP 8452A). The pH of the medium was adjusted either by addition of sodium hydroxide and hydrochloric acid.

| Compound | permeability at 45° C. relative to that at 20° C. (composite membrane, in the presence of CaCl2 (3.33×10^−2 mM, FIG. 7), calculated from slopes) | P(45° C.)/P(20° C.) in 0.0001M KCl | permeation across the membrane into water at 25° C. (water, 25° C. compared with 40° C. (FIG. 6)) | ratio of the permeability at 40° C. to that at 25° C. (composite membrane, DDI water (FIG. 5)) | penetration through the membrane (at the studied temperatures) |
| --- | --- | --- | --- | --- | --- |
| Vitamin B12 | about 11 fold | 11.0 | almost negligible permeation | – | – |
| CC(=O)Nc1ccc(O)cc1 [Acetaminophen] | – | 2.20 | – | about 2.6 times | – |
| Chymotrypsin | – | No permeation at both | – | – | could not penetrate through the membrane |
